Assay results reported in paper PMC12238723, “Phase I Clinical Trial of CVL218, a Novel PARP1/2 Inhibitor, in Patients with Advanced Solid Tumors” (MedComm, 2025).

Test system: patients with advanced solid tumors
Assay: Treatment-related adverse events (CTCAE v5.0), phase I dose escalation
Assay type: in vivo
Excerpt: This study was a single‐arm, dose‐escalation phase I trial conducted in Sun Yat‐sen University Cancer Center in China. This study assessed CVL218 in patients with histologically or cytologically confirmed advanced solid tumors who were in PD after standard therapeutic regimens or lacked standard treatment options. Inclusion criteria included: age 18–75 years; with at least one measurable and evaluable target lesion per Response Evaluation Criteria in Solid Tumors 1.1 (RECIST 1.1); ECOG performance status of 0 or 1; adequate hematological, renal, cardiac, and hepatic functions and a life expectancy ≥12 weeks. Key exclusion criteria included prior usage of PARP inhibitors; allergic to the research drug or its components; with active, unstable systemic diseases or active, uncontrolled infection; a history of other malignancies within 5 years, and pregnant or lactating women.
CVL218 was administered orally, and this dose‐escalation trial included nine dose levels: 100 mg QD (50 mg BID), 200 mg QD (100 mg BID), 400 mg QD (200 mg BID), 700 mg QD (350 mg BID), 1000 mg QD (500 mg BID), 1200 mg QD (600 mg BID), 1400 mg QD (700 mg BID), 1700 mg QD (850 mg BID), and 2000 mg QD (1000 mg BID). Patients enrolled in the study received a single oral dose on the first day, followed by continuous multiple dosing (twice a day taking 12 h apart) after 72 h, with the treatment cycle lasting 4 weeks. The period during which patients received a single dose is designated as cycle 0 (C0), lasting 72 h. After this period, patients begin multiple dosing, referred to as cycle 1 (C1). An initial accelerated titration design was employed for the three lowest dose groups, and the “3+3” design was applied starting with the 300 mg BID cohort.
The primary objectives were to assess safety and tolerability as well as to determine the MTD, DLT, and dose recommended for further study. DLT was defined as any of the following events occurring during cycle 0 (including 72 h wash‐out period after a single dose) and cycle 1 per Common Terminology Criteria for Adverse Events (CTCAE) version 5.0: grade 4 anemia; grade 4 neutropenia; grade 3 neutropenia with fever ≥38.5°C; grade 4 thrombocytopenia; grade 3 thrombocytopenia associated with bleeding; grade ≥2 neurotoxicity; any other grade ≥3 nonhematological toxicities (excluding alopecia). The secondary objectives were to assess the PK and preliminary efficacy of CVL218.
Subjects who received at least one dose of CVL218 with postadministration safety records were included in safety analysis set. Subjects who received at least one dose of CVL218 with at least one evaluable PK parameter were included in PK analysis set. Per‐protocol set were used for efficacy analysis. Descriptive statistics of safety were presented per CTCAE v5.0. The PK parameters T max and T 1/2 were shown as the median (min, max) and mean ± SD, respectively. A two‐sided p < 0.05 was considered to indicate statistical significance. Statistical analysis was performed by using GraphPad prism 8.0.2 and R‐4.3.3.

With `CNCc1ccc(-c2cc3cc(F)cc(C(N)=O)c3o2)cc1.Cl` [CVL218] the Abdominal distension (600 mg BID, ≥G3) was 0 n (%), the Abdominal pain (600 mg BID, ≥G3) was 0 n (%) and the Abdominal pain upper (600 mg BID, ≥G3) was 0 n (%). For the same compound, the Amylase increased (600 mg BID, ≥G3) was 0 n (%), the Anemia (600 mg BID, ≥G3) was 0 n (%) and the “Any AE related to study drug” value (600 mg BID, ≥G3) was 1 (25.0) n (%). The Asthenia (600 mg BID, ≥G3) was 0 n (%), the Blood system disorders (600 mg BID, ≥G3) was 0 n (%) and the Blood triglycerides increased (600 mg BID, ≥G3) was 0 n (%). For the same compound, the Cardiac disorders (600 mg BID, ≥G3) was 0 n (%), the Chest discomfort (600 mg BID, ≥G3) was 0 n (%) and the Constipation (600 mg BID, ≥G3) was 0 n (%). The Decreased appetite (600 mg BID, ≥G3) was 0 n (%), the Diarrhea (600 mg BID, ≥G3) was 0 n (%) and the Dizziness (600 mg BID, ≥G3) was 0 n (%). For the same compound, the Erectile dysfunction (600 mg BID, ≥G3) was 0 n (%), the Gastrointestinal disorders (600 mg BID, ≥G3) was 0 n (%) and the General disorders (600 mg BID, ≥G3) was 0 n (%). The Gingival bleeding (600 mg BID, ≥G3) was 0 n (%), the Granulocyte count increased (600 mg BID, ≥G3) was 0 n (%) and the Headache (600 mg BID, ≥G3) was 0 n (%). For the same compound, the Hypoalbuminemia (600 mg BID, ≥G3) was 0 n (%), the Infusion site pain (600 mg BID, ≥G3) was 0 n (%) and the Limb discomfort (600 mg BID, ≥G3) was 0 n (%). For the same compound, the Lipase increased (600 mg BID, ≥G3) was 0 n (%), the Metabolic disorders (600 mg BID, ≥G3) was 0 n (%) and the Musculoskeletal discomfort (600 mg BID, ≥G3) was 0 n (%). The Musculoskeletal disorders (600 mg BID, ≥G3) was 0 n (%), the Nausea (600 mg BID, ≥G3) was 0 n (%) and the Nervous system disorders (600 mg BID, ≥G3) was 0 n (%). For the same compound, the Neutrophil count decreased (600 mg BID, ≥G3) was 0 n (%), the Neutrophil count increased (600 mg BID, ≥G3) was 0 n (%) and the Palpitations (600 mg BID, ≥G3) was 0 n (%). For the same compound, the Protein urine present (600 mg BID, ≥G3) was 0 n (%), the Proteinuria (600 mg BID, ≥G3) was 0 n (%) and the Rash (600 mg BID, ≥G3) was 0 n (%). The “Renal & urinary disorders” value (600 mg BID, ≥G3) was 0 n (%), the Renal failure (600 mg BID, ≥G3) was 0 n (%) and the Reproductive disorders (600 mg BID, ≥G3) was 0 n (%). For the same compound, the Skin disorders (600 mg BID, ≥G3) was 0 n (%), the “Urinary occult blood positive” value (600 mg BID, ≥G3) was 0 n (%) and the Vomiting (600 mg BID, ≥G3) was 0 n (%). For the same compound, the WBC count decreased (600 mg BID, ≥G3) was 0 n (%), the WBC count increased (600 mg BID, ≥G3) was 0 n (%) and the Infusion site pain (700 mg BID, ALL) was 0 n (%). For the same compound, the WBC count increased (700 mg BID, ALL) was 0 n (%), the ALT increased (700 mg BID, ≥G3) was 0 n (%) and the AST increased (700 mg BID, ≥G3) was 0 n (%). The Abdominal distension (700 mg BID, ≥G3) was 0 n (%), the Abdominal pain (700 mg BID, ≥G3) was 0 n (%) and the Abdominal pain upper (700 mg BID, ≥G3) was 0 n (%). The Amylase increased (700 mg BID, ≥G3) was 0 n (%), the Anemia (700 mg BID, ≥G3) was 0 n (%) and the “Any AE related to study drug” value (700 mg BID, ≥G3) was 0 n (%). For the same compound, the Asthenia (700 mg BID, ≥G3) was 0 n (%), the Blood creatinine increased (700 mg BID, ≥G3) was 0 n (%) and the Blood system disorders (700 mg BID, ≥G3) was 0 n (%). For the same compound, the Blood triglycerides increased (700 mg BID, ≥G3) was 0 n (%), the Blood urea increased (700 mg BID, ≥G3) was 0 n (%) and the Cardiac disorders (700 mg BID, ≥G3) was 0 n (%). For the same compound, the Chest discomfort (700 mg BID, ≥G3) was 0 n (%), the Constipation (700 mg BID, ≥G3) was 0 n (%) and the Decreased appetite (700 mg BID, ≥G3) was 0 n (%). For the same compound, the Diarrhea (700 mg BID, ≥G3) was 0 n (%), the Dizziness (700 mg BID, ≥G3) was 0 n (%) and the Erectile dysfunction (700 mg BID, ≥G3) was 0 n (%). For the same compound, the Gastrointestinal disorders (700 mg BID, ≥G3) was 0 n (%), the General disorders (700 mg BID, ≥G3) was 0 n (%) and the Gingival bleeding (700 mg BID, ≥G3) was 0 n (%). For the same compound, the Granulocyte count increased (700 mg BID, ≥G3) was 0 n (%), the Headache (700 mg BID, ≥G3) was 0 n (%) and the Hypoalbuminemia (700 mg BID, ≥G3) was 0 n (%). The Infusion site pain (700 mg BID, ≥G3) was 0 n (%), the Laboratory test disorders (700 mg BID, ≥G3) was 0 n (%) and the Limb discomfort (700 mg BID, ≥G3) was 0 n (%). For the same compound, the Lipase increased (700 mg BID, ≥G3) was 0 n (%), the Metabolic disorders (700 mg BID, ≥G3) was 0 n (%) and the Musculoskeletal discomfort (700 mg BID, ≥G3) was 0 n (%). For the same compound, the Musculoskeletal disorders (700 mg BID, ≥G3) was 0 n (%), the Nausea (700 mg BID, ≥G3) was 0 n (%) and the Nervous system disorders (700 mg BID, ≥G3) was 0 n (%). For the same compound, the Neutrophil count decreased (700 mg BID, ≥G3) was 0 n (%), the Neutrophil count increased (700 mg BID, ≥G3) was 0 n (%) and the Palpitations (700 mg BID, ≥G3) was 0 n (%). The Protein urine present (700 mg BID, ≥G3) was 0 n (%), the Proteinuria (700 mg BID, ≥G3) was 0 n (%) and the Rash (700 mg BID, ≥G3) was 0 n (%). The “Renal & urinary disorders” value (700 mg BID, ≥G3) was 0 n (%), the Renal failure (700 mg BID, ≥G3) was 0 n (%) and the Reproductive disorders (700 mg BID, ≥G3) was 0 n (%). For the same compound, the Skin disorders (700 mg BID, ≥G3) was 0 n (%), the “Urinary occult blood positive” value (700 mg BID, ≥G3) was 0 n (%) and the Vomiting (700 mg BID, ≥G3) was 0 n (%). The WBC count decreased (700 mg BID, ≥G3) was 0 n (%), the WBC count increased (700 mg BID, ≥G3) was 0 n (%) and the Infusion site pain (850 mg BID, ALL) was 0 n (%). The WBC count increased (850 mg BID, ALL) was 1 (20.0) n (%), the ALT increased (850 mg BID, ≥G3) was 0 n (%) and the AST increased (850 mg BID, ≥G3) was 0 n (%). The Abdominal distension (850 mg BID, ≥G3) was 0 n (%), the Abdominal pain (850 mg BID, ≥G3) was 1 (20) n (%) and the Abdominal pain upper (850 mg BID, ≥G3) was 0 n (%). The Amylase increased (850 mg BID, ≥G3) was 0 n (%), the Anemia (850 mg BID, ≥G3) was 0 n (%) and the “Any AE related to study drug” value (850 mg BID, ≥G3) was 2 (40.0) n (%). The Asthenia (850 mg BID, ≥G3) was 0 n (%), the Blood creatinine increased (850 mg BID, ≥G3) was 2 (40.0) n (%) and the Blood system disorders (850 mg BID, ≥G3) was 0 n (%). The Blood triglycerides increased (850 mg BID, ≥G3) was 0 n (%), the Blood urea increased (850 mg BID, ≥G3) was 0 n (%) and the Cardiac disorders (850 mg BID, ≥G3) was 0 n (%). For the same compound, the Chest discomfort (850 mg BID, ≥G3) was 0 n (%), the Constipation (850 mg BID, ≥G3) was 0 n (%) and the Decreased appetite (850 mg BID, ≥G3) was 0 n (%). For the same compound, the Diarrhea (850 mg BID, ≥G3) was 0 n (%), the Dizziness (850 mg BID, ≥G3) was 0 n (%) and the Erectile dysfunction (850 mg BID, ≥G3) was 0 n (%). The Gastrointestinal disorders (850 mg BID, ≥G3) was 1 (20) n (%), the General disorders (850 mg BID, ≥G3) was 0 n (%) and the Gingival bleeding (850 mg BID, ≥G3) was 0 n (%). The Granulocyte count increased (850 mg BID, ≥G3) was 0 n (%), the Headache (850 mg BID, ≥G3) was 0 n (%) and the Hypoalbuminemia (850 mg BID, ≥G3) was 0 n (%). The Infusion site pain (850 mg BID, ≥G3) was 0 n (%), the Laboratory test disorders (850 mg BID, ≥G3) was 2 (40.0) n (%) and the Limb discomfort (850 mg BID, ≥G3) was 0 n (%). The Lipase increased (850 mg BID, ≥G3) was 0 n (%) and the Metabolic disorders (850 mg BID, ≥G3) was 0 n (%).
